How the values were obtained:
rat [1] = conditions: cited from earlier work
rat [2] = conditions: ratio of LD50 in rat
Excerpt: The common stabilizer has danger in the safety in case of excessive use.

Q: With `CC(=O)N[C@@H](CS)C(=O)O` [N-acetyl cysteine] as the compound, how does the LD50 (rat [1]) read?
A: The LD50 was 3600 mg/kg.

Q: And the “Lower toxicity than citric acid” value (rat [2])?
A: Its value is 90 times.

From patent publication US7186751B2, “Injectable composition of paclitaxel” (priority 2001, dated 2007)
